Source: PubChem BioAssay (NCI)
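Briefly, cells in 96-well plates were exposed to five compound concentrations for 48 h, and endpoints were estimated by linear interpolation. GI50 = concentration required for 50% inhibition of growth. TGI denotes the concentration required for complete inhibition of growth.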

Legend:
Experiment in all cases: NCI-60 cell line screen, 48 h
[1] = test system: MCF7 breast
[2] = test system: RPMI-8226 leukemia
[3] = test system: U251 CNS
[4] = test system: LOX IMVI melanoma
[5] = test system: HT29 colon
[6] = test system: SR leukemia
[7] = test system: SNB-19 CNS
[8] = test system: MOLT-4 leukemia
[9] = test system: SW-620 colon
[10] = test system: SF-268 CNS
[11] = test system: DU-145 prostate
[12] = test system: COLO 205 colon
[13] = test system: OVCAR-5 ovarian
[14] = test system: M14 melanoma
[15] = test system: NCI-H23 lung
[16] = test system: NCI-H522 lung
[17] = test system: UO-31 renal
[18] = test system: SK-MEL-5 melanoma
[19] = test system: K-562 leukemia
[20] = test system: RXF 393 renal
[21] = test system: A498 renal
[22] = test system: SK-MEL-28 melanoma
[23] = test system: HCC-2998 colon
[24] = test system: IGROV1 ovarian
[25] = test system: HOP-92 NSCLC
[26] = test system: CCRF-CEM leukemia
[27] = test system: MDA-MB-435
[28] = test system: HCT-116 colon
[29] = test system: A549 NSCLC
[30] = test system: UACC-257 melanoma
[31] = test system: OVCAR-4 ovarian
[32] = test system: PC-3 prostate
[33] = test system: NCI-H460 lung
[34] = test system: EKVX NSCLC
[35] = test system: 786-0 renal
[36] = test system: SNB-75 CNS
[37] = test system: CAKI-1 renal
[38] = test system: NCI-H226 lung
[39] = test system: SF-539 CNS
[40] = test system: SN12C renal
[41] = test system: MDA-MB-468 breast
[42] = test system: ACHN renal
[43] = test system: T-47D breast
[44] = test system: UACC-62 melanoma
[45] = test system: MDA-MB-231 breast
[46] = test system: OVCAR-8 ovarian
[47] = test system: HS 578T breast
[48] = test system: TK-10 renal
[49] = test system: OVCAR-3 ovarian
[50] = test system: MALME-3M melanoma
[51] = test system: HOP-62 NSCLC
[52] = test system: HCT-15 colon
[53] = test system: SK-OV-3 ovarian
[54] = test system: SF-295 CNS
[55] = test system: KM12 colon
[56] = test system: HL-60(TB) leukemia
[57] = test system: BT-549 breast

With CCC(C)(C)c1ccc(OCCCCCCN2CCN(c3ccncc3)CC2)cc1 the GI50 [1] was 1.73 µM, the TGI [1] was 3.95 µM and the GI50 [2] was 2.06 µM. The TGI [2] was 4.98 µM, the GI50 [3] was 3.06 µM and the TGI [3] was 11.8 µM. For the same compound, the GI50 [4] was 1.81 µM, the TGI [4] was 3.4 µM and the GI50 [5] was 2.49 µM. For the same compound, the TGI [5] was 8.86 µM, the GI50 [6] was 2.13 µM and the TGI [6] was 9.38 µM. For the same compound, the GI50 [7] was 8.19 µM, the TGI [7] was 22.2 µM and the GI50 [8] was 3.14 µM. For the same compound, the TGI [8] was 10.1 µM, the GI50 [9] was 1.66 µM and the TGI [9] was 3.69 µM. It also gave a GI50 [10] of 11.8 µM, a TGI [10] of 27.9 µM and a GI50 [11] of 5.27 µM. It also gave a TGI [11] of 17.6 µM, a GI50 [12] of 1.66 µM and a TGI [12] of 3.33 µM. For the same compound, the GI50 [13] was 13.4 µM, the TGI [13] was 26.2 µM and the GI50 [14] was 1.58 µM. For the same compound, the TGI [14] was 3.39 µM, the GI50 [15] was 3.65 µM and the TGI [15] was 14 µM. The GI50 [16] was 11.8 µM, the TGI [16] was 26.5 µM and the GI50 [17] was 10 µM. It also gave a TGI [17] of 22.1 µM, a GI50 [18] of 1.79 µM and a TGI [18] of 3.58 µM. It also gave a GI50 [19] of 1.52 µM, a TGI [19] of 6.8 µM and a GI50 [20] of 1.89 µM. It also gave a TGI [20] of 8.42 µM, a GI50 [21] of 17.9 µM and a TGI [21] of 34.6 µM. It also gave a GI50 [22] of 3.71 µM, a TGI [22] of 13.3 µM and a GI50 [23] of 1.87 µM. It also gave a TGI [23] of 3.5 µM, a GI50 [24] of 10.8 µM and a TGI [24] of 24.4 µM. For the same compound, the GI50 [25] was 2.17 µM, the TGI [25] was 15.4 µM and the GI50 [26] was 2.02 µM. The TGI [26] was 10.3 µM, the GI50 [27] was 2.5 µM and the TGI [27] was 8.34 µM. The GI50 [28] was 1.6 µM, the TGI [28] was 3.85 µM and the GI50 [29] was 10.6 µM. It also gave a TGI [29] of 26.6 µM, a GI50 [30] of 10.7 µM and a TGI [30] of 23.8 µM. The GI50 [31] was 6.33 µM, the TGI [31] was 21 µM and the GI50 [32] was 3.63 µM. The TGI [32] was 16.2 µM, the GI50 [33] was 2.08 µM and the TGI [33] was 4.77 µM. The GI50 [34] was 4.14 µM, the TGI [34] was 16.5 µM and the GI50 [35] was 1.67 µM. The TGI [35] was 3.15 µM, the GI50 [36] was 8.03 µM and the TGI [36] was 22.4 µM. For the same compound, the GI50 [37] was 4.97 µM, the TGI [37] was 18.6 µM and the GI50 [38] was 10.6 µM. The TGI [38] was 23.7 µM, the GI50 [39] was 1.84 µM and the TGI [39] was 3.91 µM. It also gave a GI50 [40] of 10.2 µM, a TGI [40] of 22.4 µM and a GI50 [41] of 1.76 µM. For the same compound, the TGI [41] was 3.65 µM, the GI50 [42] was 6.33 µM and the TGI [42] was 19.5 µM. For the same compound, the GI50 [43] was 2.63 µM, the TGI [43] was 8.12 µM and the GI50 [44] was 11.8 µM. The TGI [44] was 24.9 µM, the GI50 [45] was 3.16 µM and the TGI [45] was 12.2 µM. For the same compound, the GI50 [46] was 10.2 µM, the TGI [46] was 30.1 µM and the GI50 [47] was 7.73 µM. For the same compound, the TGI [47] was 26.9 µM, the GI50 [48] was 14.6 µM and the TGI [48] was 28.7 µM. The GI50 [49] was 3.86 µM, the TGI [49] was 16.2 µM and the GI50 [50] was 5.26 µM. For the same compound, the TGI [50] was 17.3 µM, the GI50 [51] was 6.77 µM and the TGI [51] was 23.8 µM. It also gave a GI50 [52] of 1.75 µM, a TGI [52] of 3.88 µM and a GI50 [53] of 14.4 µM. It also gave a TGI [53] of 29.8 µM, a GI50 [54] of 1.9 µM and a TGI [54] of 3.74 µM. It also gave a GI50 [55] of 4.17 µM, a TGI [55] of 15.9 µM and a GI50 [56] of 1.68 µM. It also gave a TGI [56] of 4.06 µM, a GI50 [57] of 3.07 µM and a TGI [57] of 12.2 µM.
